The results in this text go back to patent publication US5158948A (Abbott Laboratories, priority 1991, dated 1992).

Where a name gives a salt, the structure may show the parent alone.

In general, Ki refers to a dissociation constant, usually derived from enzyme kinetics or from competition with a known ligand. As usually defined, the IC50 is the concentration that inhibits the measured activity by half. Higher therefore signals lower potency.

Assay [1] deals with T1, dopamine D-1 receptor (Rattus norvegicus, UniProt P18901). As to the kind of experiment: D-1 receptor binding assay, competition with [^125 I]SCH-23982 in homogenized rat caudate.
The target in the next assay is T2, dopamine D-2 receptor (Rattus norvegicus, UniProt P61169).
T2 construct: Homogenized rat caudate was the source of the D-2 receptors; from tissue; host or cells: rat caudate homogenate
Description: D-2 receptor binding assay, competition with [^3 H]-spiperone in homogenized rat caudate. The following applies: rat caudate homogenate. The protocol:
Homogenized rat caudate was the source of the D-2 receptors. […] A. Frey, T. E. Cote, C. […] The molar affinity of the compound for the receptor binding site was calculated by the same method used for the D-1 receptor assay, assuming a competitive interaction between the compound and the radiolabeled ligand.

Assay [2] has as its target T1, dopamine D-1 receptor. As to the kind of experiment: Rotation behavior: block of A-68930-induced rotation in rats with unilateral 6-hydroxydopamine lesion. The format is in vivo. Set-up: Homogenized rat caudate was incubated; from tissue; host or cells: rat caudate homogenate. Conditions: subcutaneous, A-68930 1.0 μmol/kg s.c.
For a further assay, the target named is D-1 receptor. As to the kind of experiment: D-1 antagonist activity in adenylate cyclase assay (antagonism of dopamine-induced increase in cAMP). The following applies: 10 μM dopamine; goldfish retina or rat striatum homogenate. The class given is biochemical. The protocol: The functional activity of a compound was determined by assaying, in vitro, its ability to either stimulate the enzyme adenylate cyclase to produce more cAMP (agonist activity) or to antagonize a dopamine-induced increase in cAMP levels. The protocol for the adenylate cyclase assays was described by K. J. Watling and J. E. Dowling in J Neurochemistry, 1981, 36: 599 and by J. W. Kebabian, et al. in Proc Natl Acad Sci, USA, 1972, 69: 2145. In order to determine agonist activity, cell-free tissue homogenates are incubated in an ionic buffer solution containing ATP and the compound being evaluated. The tissue was obtained from either goldfish retina or rat striatum.
The Ki values were calculated as described by Y. C.

Setting [3] is: dose 10.0 μmol/kg, saline 1118 (Example 18), 1011 (Example 27).

T1 sequence (P18901 whole entry): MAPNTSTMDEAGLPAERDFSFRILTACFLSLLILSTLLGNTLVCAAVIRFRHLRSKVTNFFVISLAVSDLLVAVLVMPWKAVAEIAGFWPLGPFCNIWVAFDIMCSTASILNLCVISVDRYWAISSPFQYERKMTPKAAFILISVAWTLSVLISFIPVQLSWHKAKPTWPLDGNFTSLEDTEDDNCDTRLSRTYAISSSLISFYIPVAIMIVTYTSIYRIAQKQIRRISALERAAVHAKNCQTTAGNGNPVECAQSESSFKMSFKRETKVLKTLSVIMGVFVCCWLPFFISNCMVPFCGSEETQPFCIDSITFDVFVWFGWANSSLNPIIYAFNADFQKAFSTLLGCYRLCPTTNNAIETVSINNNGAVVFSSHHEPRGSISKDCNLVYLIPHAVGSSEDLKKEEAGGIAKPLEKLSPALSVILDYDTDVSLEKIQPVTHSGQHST
T2 sequence (P61169 whole entry): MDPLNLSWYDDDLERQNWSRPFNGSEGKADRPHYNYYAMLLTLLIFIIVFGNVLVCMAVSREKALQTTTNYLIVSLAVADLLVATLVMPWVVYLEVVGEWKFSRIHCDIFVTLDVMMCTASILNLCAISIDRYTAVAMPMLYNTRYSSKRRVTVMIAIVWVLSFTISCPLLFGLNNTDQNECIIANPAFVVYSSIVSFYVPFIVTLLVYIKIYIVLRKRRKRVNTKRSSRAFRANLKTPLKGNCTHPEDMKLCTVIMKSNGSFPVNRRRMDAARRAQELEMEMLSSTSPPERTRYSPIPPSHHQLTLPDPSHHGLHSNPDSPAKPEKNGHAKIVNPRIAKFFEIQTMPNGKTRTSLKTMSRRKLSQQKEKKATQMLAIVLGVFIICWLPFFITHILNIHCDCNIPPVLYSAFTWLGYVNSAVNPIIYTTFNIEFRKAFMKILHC

Take `CN1CCc2cc(O)c(O)cc2C2(CCCc3ccccc32)C1` (centres unmarked) [Example 27, 7,8-Dihydroxy-3-methyl-1-(spiro-1'-1',2',3',4'-tetrahydronapthalene)-2,3,4,5-tetrahydro-1H-3-benzazepine hydrobromide]: the Ki was 840 nM at dopamine D-1 receptor [1], over 100000 nM on dopamine D-2 receptor and 400 nM on D-1 receptor. Further, the “Number of Rotations/2 h” value at dopamine D-1 receptor [2] (dose 3.0 μmol/kg, saline group 1011) is recorded as 913 Rotations/2 h; at dopamine D-1 receptor [2] (setting [3]), 652 Rotations/2 h; on dopamine D-1 receptor [2] (dose 30.0 μmol/kg, saline group 1011) it was 119 Rotations/2 h. The compound further gave an IC50 against D-1 receptor of 2290 nM.
Take `CN1CCc2cc(Br)c(O)cc2C2(CCc3ccccc32)C1` (centres unmarked) [Example 18, 7-Bromo-8-hydroxy-3-methyl-1-(spiro-1'-indan)-2,3,4,5-tetrahydro-1H-3-benzazepine hydrochloride]: the figures for the Ki on dopamine D-1 receptor [1], at dopamine D-2 receptor and at D-1 receptor were 10 nM, 5900 nM and 10 nM, respectively. Besides, the “Number of Rotations/2 h” value on dopamine D-1 receptor [2] (dose 3.2 μmol/kg, saline group 1118) amounted to 491 Rotations/2 h; at dopamine D-1 receptor [2] (setting [3]) it was 412 Rotations/2 h; on dopamine D-1 receptor [2] (dose 32.0 μmol/kg, saline group 1118), 154 Rotations/2 h. Further, at D-1 receptor, the IC50 was 50 nM.
